Measured values: patent US20230151371A1, “POLYPEPTIDES HAVING EPOXY GROUP-REMOVING CATALYTIC ACTIVITY, NUCLEIC ACIDS ENCODING THE POLYPEPTIDES AND USE THEREOF” (priority 2020, published 2023)
Like-named read-outs stand apart in the source and are kept apart here.

Columns and labels:
[1] = tested on: normal human esophageal epithelial cells (HEECs)
[2] = tested on: pancreatic cancer cell line (PATU8988)
[3] = tested on: human embryonic kidney cell 293-derived line (293T)

Measured: cell viability (CCK-8, OD450)

fusarenon-X [FUS-X]
decreased sharply: [1]; HEEC, 48 h treatment | [2] | [3]

3-acetyl-deoxynivalenol [3-ADON]
decreased sharply: [1]; HEEC, 48 h treatment | [2]; PATU8988, 48 h treatment | [3]; 293T, 48 h treatment

HT-2 toxin
decreased sharply: [1] | [2] | [3]

deoxynivalenol [DON]
decreased sharply: [1]; HEEC, 48 h treatment | [2]; PATU8988, 48 h treatment | [3]; 293T, 48 h treatment

15-acetyl-deoxynivalenol [15-ADON]
decreased sharply: [1]; HEEC, 48 h treatment | [2]; PATU8988, 48 h treatment | [3]; 293T, 48 h treatment
